Test results from patent US7550599B2, “Water compatible sterically hindered alkoxyamines and hydroxy substituted alkoxyamines” (Ciba Specialty Chemicals Corporation, priority 2003, dated 2009).

Columns and labels:
[1] = Ink jet media light fastness, cyan, Example 31; settings: 100% print density; office fluorescent lighting; 650-700 mg/m2
Description: (§1) A resin-coated paper impregnated with inorganic adsorbent particles (Konica QP Photoglossy ink jet paper, Konica Corp.) is purchased. On the ink-receiving layer, a 0.8 wt % methanol solution of the instant compounds is applied in an amount to achieve 650-700 mg/m^2, unless otherwise stated. The paper is allowed to dry under ambient temperature and pressure for 24 hours. Separately, test patterns (cyan) are printed on the treated sheets using a Hewlett Packard DeskJet 970 Cxi printer at 100% print density. The obtained prints are left to dry at ambient temperature and pressure for 24 hours. Color densities and CIEL*a*b coordinates before and after exposure are measured using X-Rite 938 Spectrodensitometer. Exposures are carried out using normal office fluorescent lighting.

[2] = Ink jet media light fastness, magenta, Example 32; settings: 100% print density, office fluorescent lighting
Description: as §1, with “(magenta)” for “(cyan)”

[3] = Ink jet media light fastness, cyan, Example 34; settings: 50% print density, office fluorescent lighting
Description: as §1, with “50%” for “100%”

[4] = Ink jet media light fastness, magenta, Example 35; settings: 50% print density, office fluorescent lighting
Description: as §1, with “(magenta)” for “(cyan)”, “50%” for “100%”

[5] = Dye fading of shampoo under fluorescent light, Example 49; settings: Clairol Herbal Essences shampoo; fluorescent light aging; loading 0.30 wt %
Description: (§2) The instant compounds are added to a commercial shampoo formulation and are evaluated for their ability to reduce the amount of dye fading when the samples are exposed to fluorescent lighting. The instant compounds (0.36 g) are dissolved in 5 mL of methanol which is then added to 120 g of shampoo (Clairol^R Herbal Essences Shampoo) with agitation. A benzotriazole UV absorber, 2-(2-hydroxy-3-tert-butyl-5-methylphenyl)-2H-benzotriazole-5-sulfonic acid, sodium salt (UVA), is optionally added to the shampoo formulation. The stabilized shampoo formulation is agitated for 15 minutes and put into 20 mL glass scintillation vials. These formulations are weathered under fluorescent light aging at ambient temperature. The CIEL*a*b coordinates before and after exposure are measured using X-Rite 938 Spectrodensitometer. Color change is expressed as Delta E (DE).

[6] = Dye fading of mouthwash under fluorescent light, Example 50; settings: Scope Original Mint mouthwash; fluorescent light aging; loading 0.30 wt %
Description: as §2, with “mouthwash” for “shampoo”, “mouthwash (Scope^R Original Mint)” for “shampoo (Clairol^R Herbal Essences Shampoo)”

[7] = Ink jet media light fastness, cyan, Example 38; settings: 100% print density; office fluorescent lighting; total stabilizer 650-700 mg/m2, mixtures 1:1 by weight
Description: as §1, with “mg/m^2.” for “mg/m^2, unless otherwise stated.”, “(cyan and yellow)” for “(cyan)”

[8] = Ink jet media light fastness, yellow, Example 38; settings: 100% print density; office fluorescent lighting; total stabilizer 650-700 mg/m2, mixtures 1:1 by weight
Description: as §1, with “mg/m^2.” for “mg/m^2, unless otherwise stated.”, “(cyan and yellow)” for “(cyan)”

[9] = Dye fading of shampoo under fluorescent light, Example 48; settings: Suave shampoo; fluorescent light aging, ambient temperature; loading 0.30 wt %
Description: as §2, with “(Suave^R Natural^R, Fresh Mountain Strawberry)” for “(Clairol^R Herbal Essences Shampoo)”, “formulation at an equivalent concentration.” for “formulation.”

[10] = Solubility in 50% butyl carbitol / 50% water; assay type: physicochemical; settings: 50% butyl carbitol / 50% water by weight; stirred 30 minutes
Description: (§3) The solubility of the instant compounds is evaluated in polar solvent systems. A solution of 50% butyl carbitol by weight and 50% water by weight is prepared. The instant compounds are added to this solution, stirred for 30 minutes, and sampled for analysis. Samples containing bis(1-octyloxy-2,2,6,6-tetramethylpiperidin-4-yl)sebacate and 4-hydroxy-1-(2-hydroxy-2-methylpropoxy)-2,2,6,6-tetramethylpiperidine are filtered to remove any undissolved residue and all samples are analyzed by high pressure liquid chromatography or gas chromatography.

[11] = Solubility in 50% butyl cellusolve / 50% water; assay type: physicochemical; settings: 50% butyl cellusolve / 50% water by weight; stirred 30 minutes
Description: as §3, with “cellusolve” for “carbitol”, “solution” for “solution,”

CC(C)(O)CON1C(C)(C)CC(N)CC1(C)C [Example 7]
DE for cyan after 4 weeks [1]: 4.27
DE for magenta after 4 weeks ([2]; 650-700 mg/m2): 20.78
DE for magenta after 4 weeks ([2]; (2x) 1300 to 1400 mg/m2): 19.52
DE for magenta after 4 weeks ([2]; (3x) 1950 to 2100 mg/m2): 12.99
DE for cyan after 4 weeks ([3]; 650-700 mg/m2): 5.85
DE for cyan after 4 weeks ([3]; (2x) 1300 to 1400 mg/m2): 4.95
DE for cyan after 4 weeks ([3]; (3x) 1950 to 2100 mg/m2): 4.34
DE for magenta after 4 weeks ([4]; 650-700 mg/m2): 16.62
DE for magenta after 4 weeks ([4]; (2x) 1300 to 1400 mg/m2): 14.14
DE for magenta after 4 weeks ([4]; (3x) 1950 to 2100 mg/m2): 8.60
DE after 2 weeks [5]: 3.96

CC(C)(O)CON1C(C)(C)CC(OC(=O)C(C)(C)O)CC1(C)C [Example 18]
DE after 2 weeks [6]: 5.11

CC(=O)NCC(=O)NC1CC(C)(C)N(OCC(C)(C)O)C(C)(C)C1 [Example 37]
DE for cyan after 3 months [7]: 11.39
DE for yellow after 3 months [8]: 2.96

CC(C)(O)CON1C(C)(C)CC(OC(=O)CCC(=O)O)CC1(C)C [Example 17]
DE after 2 weeks [9]: 8.91

Cl.ON(Cc1ccccc1)Cc1ccccc1 [Compound A, N,N-dibenzylhydroxylamine hydrochloride, reference compound]
DE for cyan after 3 months [7]: 11.96
DE for yellow after 3 months [8]: 5.31

CC(NC1CC(C)(C)N(OCC(C)(C)O)C(C)(C)C1)C(=O)[O-].[K+] (stereo not drawn) [Example 5]
Solubility (% by weight) [10]: ≧15 % by weight
Solubility (% by weight) [11]: ≧18 % by weight
DE after 2 weeks [5]: 1.55

CN(C)CCNC1CC(C)(C)N(OCC(C)(C)O)C(C)(C)C1 [Example 6]
DE after 2 weeks [9]: 7.53
